{"source": "patent US9056916B2", "about": "“Method and assay kit for detection of toxicity induced by pyrrolizidine alkaloids” (priority 2012, dated 2015)", "type_in_all_cases": "binding, rabbit", "key": {"antiserum II": {"test_system": "antiserum II", "test": "Competitive ELISA and cross-reactivity test of antiserum II", "conditions": "antiserum II 1:30000, pure PA as competitor", "method": "In competitive ELISA assay, one hundred microliters of coating antigen, BSA-pyrrole adducts, in PBS buffer was added to wells of a 96-well microtiter plate. The plates were incubated at 4° C. overnight or room temperature for 2 h. Serial dilutions of the competitor, N-acetyl-L-lysine-pyrrole, were prepared in PBST buffer. The resulting solution was mixed (1:1 v/v) with diluted antiserum in 5% nonfat milk dissolved in PBST buffer. The mixture was incubated at 4° C. overnight. The following day, the same procedure as in the titer analysis was followed. The absorbance at dual wavelength (450-650 nm) was read."}, "purified S-antibody": {"test_system": "purified S-antibody", "test": "Competitive Western blot of purified S-antibody", "conditions": "competitor 0.1 mM or 1 mM, concentration-dependent", "method": "(§1) In Western and competitive Western blot assay, coating antigen was loaded and resolved by 7.5% SDS-PAGE and then transferred to nitrocellulose membranes. Blots were then blocked with 5% nonfat milk in PBST buffer for 1 h at room temperature. Blotted membranes were incubated with 1/4000 dilution of purified S-antibody in PBST buffer with 5% nonfat milk in the absence or 0.1 mM or 1 mM of pyrrole-(SMe)2 at 4° C. overnight. The following day, after washing three times with PBST buffer, membranes were incubated with anti-rabbit IgG-horseradish peroxidase solution (1/5000 in PBST buffer with 5% nonfat milk) for 1 h at room temperature. After washing, protein bands were detected by chemiluminescence with an ECL detection kit. […] Moreover, the immune response was inhibited by pyrrole-containing competitor, pyrrole-(SMe)2, in competitive Western blot assays, and the inhibitory effect was concentration-dependent manner (See FIG. 11)."}, "purified N-antibody": {"test_system": "purified N-antibody", "test": "Competitive Western blot of purified N-antibody", "conditions": "competitor 0.1 mM or 1 mM, concentration-dependent", "method": "as §1, with “N-antibody” for “S-antibody”, “pyrrole-(NHMe)2” for “pyrrole-(SMe)2”, “pyrrole-(NHMe)2,” for “pyrrole-(SMe)2,”, “(FIG. 9).” for “(See FIG. 11).”"}}, "data": [{"compound": "C[C@H]1C(=O)O[C@@H]2CCN3CC=C(COC(=O)[C@](C)(O)[C@]1(C)O)[C@H]23", "note": "[monocrotaline]", "values": [{"measurement": "cross-reactivity with antiserum II", "setting": "antiserum II", "result": "no cross-reactivity"}]}, {"compound": "retrorsine", "values": [{"measurement": "cross-reactivity with antiserum II", "setting": "antiserum II", "result": "no cross-reactivity"}]}, {"compound": "pyrrole-(SMe)2", "values": [{"measurement": "inhibition of immune response of S-antibody with BSA-pyrrole adducts", "setting": "purified S-antibody", "result": "inhibited"}]}, {"compound": "pyrrole-(NHMe)2", "values": [{"measurement": "inhibition of immune response of N-antibody with BSA-pyrrole adducts", "setting": "purified N-antibody", "result": "inhibited"}]}]}
